Structures can show the parent of a compound that is named as a salt.
Experiments:
[1] = Intrinsic clearance in rat liver microsomes; type: in vitro ADME; settings: pH 7.4, NADPH, read-out: Rat Microsomal Stability T½
Method in brief: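 Compound at 1 uM (0.1% DMSO) in PBS pH 7.4 preincubated 15 min at 37° C with NADPH, then rat liver microsomes (0.5 mg/mL protein) added and incubated at 37° C. Samples at 0–60 min quenched in acetonitrile and analysed by LC-MS/MS; half-life derived from % remaining versus 0 min; no-NADPH controls run.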

BRD4 BD1 = biological target: T1, BRD4 BD1 (Homo sapiens, UniProt O60885); assay: NanoBRET bromodomain assay, BRD4 BD1; type: cell-based; settings: HEK293 cells transfected with NanoLuc-BRD4-BD1
T1 construct: HEK293 cells were transfected using NanoLuc-BRD4-BD1 or NanoLuc-BRD4-BD2 fusion vectors; host or cells: HEK293
Method in brief: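 Transfected HEK293 cells expressing NanoLuc-BRD4-BD1 were incubated with 1x tracer and serially diluted compound for 2 h at 37 °C, then given Nano-Glo substrate plus extracellular NanoLuc inhibitor. Donor 450 nm and acceptor 610 nm emissions were converted to background-corrected mBU, and IC50 was derived by nonlinear regression.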

Mouse plasma stability = type: in vitro ADME; settings: 10 μM in mouse plasma, 37° C.
Experimental: The stock solution of compound (10 or 50 mM) was prepared in DMSO. From the stock solution, a working solution of compound (500 uM) was prepared in DMSO (100%). To 735 μL of mouse plasma, 15 μL of working solution of compound was added—resulting in a final concentration of 10 μM (2% DMSO) for the compound. The sample was then incubated at 37° C. Aliquot was withdrawn at time-points—0, 15, 30, 60, 90 and 120 mins. The reaction was stopped by using chilled acetonitrile containing internal standard (IS). The samples were centrifuged and the supernatants analyzed using LC-MS/MS. The percent remaining of the compound at each time point was calculated with respect to the control sample (0 min time-point).

BRD4 BD2 = biological target: T2, BRD4 BD2 (Homo sapiens, UniProt O60885); assay: NanoBRET bromodomain assay, BRD4 BD2; type: cell-based; settings: for Fold selectivity BRD4 BD1/BD2: IC50 BD1/IC50 BD2; for IC50: NanoBRET, HEK293 cells transfected with NanoLuc-BRD4-BD2
T2 construct: HEK293 cells were transfected using NanoLuc-BRD4-BD1 or NanoLuc-BRD4-BD2 fusion vectors; host or cells: HEK293
Method in brief: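 HEK293 cells transfected with NanoLuc-BRD4-BD2 fusion for 20-24 h, then treated with compound plus 1x tracer for 2 h at 37° C. Donor 450 nm / acceptor 610 nm emissions converted to background-corrected mBU; IC50 by nonlinear regression; selectivity as IC50 BD1/IC50 BD2.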

[2] = Intrinsic clearance in mouse liver microsomes; type: in vitro ADME; settings: 1 uM, NADPH
Experimental: A 50 mM stock solution (in DMSO) was prepared for the compound. From the stock solution, a working solution of 0.5 mM was prepared by diluting the compound in DMSO. This concentration of working solution was prepared considering a final concentration of 1 uM with 0.1% DMSO. The compound (1 uL of working solution) was spiked in PBS with pH 7.4 (22 uL) at a concentration of 1 uM. Subsequently, 110 uL of 10 mM NADPH was added (as a co-factor). The sample was incubated at 37° C. for 15 min. Following this, pre-warmed mouse liver microsomes (27.5 uL; final protein conc. 0.5 mg/mL) were added. The samples were then incubated at 37° C. Aliquots of samples were withdrawn at 0, 5, 15, 30, 45 and 60 min. The reaction was stopped by using chilled acetonitrile containing internal standard. The samples were centrifuged and the supernatants analysed by LC-MS/MS. The percent compound remaining at each time point was calculated with respect to that of the 0 min sample. The data were then analysed to calculate half-life and intrinsic clearance (CLint). Note that control samples were run without NADPH and blank samples were prepared using DMSO without the test compound.

Row | Structure (SMILES) | half-life at 1 uM [1] [h] | IC50 (BRD4 BD1) [nM] | Mouse Plasma Stability % remaining at 120 minutes (Mouse plasma stability) [%] | Fold selectivity BRD4 BD1/BD2 (BRD4 BD2) | IC50 (BRD4 BD2) [nM] | Mouse Microsomal Stability (intrinsic clearance) [2] [ml/min/g liver]
1 | Cc1cc(-c2cc3c(-c4cc(=O)n(C)cc4Oc4c(C)cccc4C)cn(C)c(=O)c3[nH]2)n(C)n1 [Example 7, 2-(1,3-dimethyl-1H-pyrazol-5-yl)-4-(5-(2,6-dimethylphenoxy)-1-methyl-2-oxo-1,2-dihydropyridin-4-yl)-6-methyl-1,6-dihydro-7H-pyrrolo[2,3-c] pyridin-7-one] | > 1 | > 1000 | 84 | xxx (Fold >200) | ≤ 50 | 
2 | Cc1cccc(C)c1Oc1cn(C)c(=O)cc1-c1cn(C)c(=O)c2[nH]c(-c3cnn(C(C)C)c3)cc12 [Example 11, 4-(5-(2,6-dimethylphenoxy)-1-methyl-2-oxo-1,2-dihydropyridin-4-yl)-2-(1-isopropyl-1H-pyrazol-4-yl)-6-methyl-1,6-dihydro-7H-pyrrolo[2,3-c] pyridin-7-one] | > 1 | 50 to 500 | 98 | xx (Fold >50 and ≤200) | ≤ 50 | 
3 | Cc1cccc(C)c1Oc1cn(C)c(=O)cc1-c1cn(C)c(=O)c2[nH]c(-c3ncc[nH]3)cc12 [Example 2, 4-(5-(2,6-dimethylphenoxy)-1-methyl-2-oxo-1,2-dihydropyridin-4-yl)-2-(1H-imidazol-2-yl)-6-methyl-1,6-dihydro-7H-pyrrolo [2,3-c] pyridin-7-one] |  | > 1000 | 100 | xx (Fold >50 and ≤200) | ≤ 50 | 0.9
4 | CCNC(=O)c1cc2c(-c3ccn(C)c(=O)c3Oc3c(C)cc(F)cc3C)cn(C)c(=O)c2[nH]1 [Comparative Example A, reference compound] |  | > 1000 | 7 | xx (Fold >50 and ≤200) | 50 to 200 | 0.9
5 | Cc1cccc(C)c1Oc1cn(C)c(=O)cc1-c1cn(C)c(=O)c2[nH]c(C3=NCCN3)cc12 [Example 4, 2-(4,5-dihydro-1H-imidazol-2-yl)-4-(5-(2,6-dimethylphenoxy)-1-methyl-2-oxo-1,2-dihydropyridin-4-yl)-6-methyl-1,6-dihydro-7H-pyrrolo[2,3-c]pyridin-7-one] |  | > 1000 |  | x (Fold >2 and ≤50) | 200 to 1000 | 0.6
6 | Cc1cccc(C)c1Oc1cn(C)c(=O)cc1-c1cn(C)c(=O)c2[nH]c(-c3ccccc3F)cc12 [Example 14, 4-(5-(2,6-dimethylphenoxy)-1-methyl-2-oxo-1,2-dihydropyridin-4-yl)-2-(2-fluorophenyl)-6-methyl-1,6-dihydro-7H-pyrrolo[2,3-c] pyridin-7-one] | > 1 | > 1000 | 99 | xxx (Fold >200) | ≤ 50 | 
7 | Cc1cnc(-c2cc3c(-c4cc(=O)n(C)cc4Oc4c(C)cccc4C)cn(C)c(=O)c3[nH]2)[nH]1 [Example 1, 4-(5-(2,6-dimethylphenoxy)-1-methyl-2-oxo-1,2-dihydropyridin-4-yl)-6-methyl-2-(5-methyl-1H-imidazol-2-yl)-1,6-dihydro-7H-pyrrolo [2,3-c] pyridin-7-one] |  | > 1000 | 95 | xxx (Fold >200) | ≤ 50 | 0.7
8 | Cc1cccc(C)c1Oc1cn(C)c(=O)cc1-c1cn(C)c(=O)c2[nH]c(-c3ncc(C(F)(F)F)[nH]3)cc12 [Example 3, 4-(5-(2,6-dimethylphenoxy)-1-methyl-2-oxo-1,2-dihydropyridin-4-yl)-6-methyl-2-(5-(trifluoromethyl)-1H-imidazol-2-yl)-1,6-dihydro-7H-pyrrolo[2,3-c] pyridin-7-one] |  | > 1000 | 77 | xxx (Fold >200) | ≤ 50 | 0.5
9 | Cc1cc(-c2cc3c(-c4cc(=O)n(C)cc4Oc4c(C)cccc4C)cn(C)c(=O)c3[nH]2)cc(C)n1 [Example 17, 4-(5-(2,6-dimethylphenoxy)-1-methyl-2-oxo-1,2-dihydropyridin-4-yl)-2-(2,6-dimethylpyridin-4-yl)-6-methyl-1,6-dihydro-7H-pyrrolo[2,3-c] pyridin-7-one.TFA] | > 1 | > 1000 | 42 | xxx (Fold >200) | ≤ 50 | 
10 | Cc1cnc(-c2cc3c(-c4cc(=O)n(C)cc4-c4ccccc4)cn(C)c(=O)c3[nH]2)[nH]1 [Example 5, 6-methyl-2-(5-methyl-1H-imidazol-2-yl)-4-(1-methyl-2-oxo-5-phenyl-1,2-dihydropyridin-4-yl)-1,6-dihydro-7H-pyrrolo [2,3-c] pyridin-7-one] |  | > 1000 |  | xx (Fold >50 and ≤200) | 50 to 200 | 0.6
11 | Cc1cc(F)cc(C)c1Oc1c(-c2cn(C)c(=O)c3[nH]c(C(=O)NC(C)(C)C)cc23)ccn(C)c1=O [Comparative Example B, reference compound] |  |  | 100 |  |  | 5.1

— US20240308998A1, “PYRROLOPYRIDONE DERIVATIVES USEFUL IN THE TREATMENT OF CANCER” (Tay Therapeutics Limited, priority 2021, published 2024)
